Data reported in US20110046056A1, “APOA-1 PEPTIDE MIMETICS” (priority 2007, published 2011).
Where a SMILES comes first, the peptide text is derived from it. [ ]: non-standard residue; d: D form. Ala(5-hexenyl) = C=CCCCCC[C@H](N)C(=O)O

Tests used:
human red blood cells = test: Red blood cell (RBC) lysis assay; assay type: cell-based
Description: The RBC lysis assay has been described previously (Kurtz, M. B. et al. (1994); Wang, J. et al., PNAS 104 (18), 7612-7616 (2007)). Basically, human erythrocytes are collected in a vacutainer tube with EDTA from human donors. Two ml of the freshly drawn whole blood is added to 6 ml of sterile saline and gently mixed then centrifuged at 5° C. for 5 minutes at 2000 rpm. The supernatant is discarded and the human red blood cells are resuspended with 6 ml of sterile saline and centrifuged again at 5° C. for 5 minutes at 2000 rpm. This procedure is repeated 2 times. A three percent suspension of the washed red blood cells is prepared by adding 0.3 ml of the washed red blood cells to 9.7 ml of sterile saline. The final concentration of test peptide ranging 160-2.5 (or 150-2.3) μM in 100 μl sterile saline containing 3.2% Me2SO is prepared in 96-well MICROTEST U-bottom plates (BECTON DICKINSON, BD-353227). The RBC lysis is initiated by addition of 5 μl of 3% washed human red blood cell suspension to the each well in the plates. The plates are incubated overnight at room temperature, then centrifuged at 2000 rpm for 5 minutes and read immediately. Hemolysis of red blood cells is indicated by complete or partial clearing (lysis) of the supernatants with either no or a rough RBC pellet in the bottom of the wells. […]

[1] = biological target: T1, ABCA1 cholesterol transporter protein (Mus musculus, UniProt P41233); test: ABCA1-dependent cholesterol efflux from RAW mouse macrophage cells (in vitro RCT assay); assay type: cell-based; details: read-out: EC50 in the cholesterol efflux assay (RCT in vitro assay)
T1 construct: endogenous in cells
Procedure, shortened: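 RAW macrophages labelled with ^3H-cholesterol (5 μCi/ml) 24 h, equilibrated overnight serum-free, then given eight-point peptide titrations 24 h with or without 150 μM CPT-cAMP. Percent efflux = medium counts/(medium + lysate); plain-medium efflux subtracted from cAMP value gives ABCA1-dependent efflux, fitted for EC50.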

[2] = system: atheroma in ApoE-deficient mice; test: Atheroma volume in ApoE-deficient mice by magnetic resonance imaging; assay type: in vivo, mouse; details: 20 mg per kg subcutaneously once daily; after 5 weeks of treatment; compared to vehicle-treated apoE-deficient mice; MRI
Source text: The ultimate goal of developing these mimetic peptides was for the acute and chronic treatment of atherosclerotic lesions in human patients.

T1 sequence (P41233 whole entry): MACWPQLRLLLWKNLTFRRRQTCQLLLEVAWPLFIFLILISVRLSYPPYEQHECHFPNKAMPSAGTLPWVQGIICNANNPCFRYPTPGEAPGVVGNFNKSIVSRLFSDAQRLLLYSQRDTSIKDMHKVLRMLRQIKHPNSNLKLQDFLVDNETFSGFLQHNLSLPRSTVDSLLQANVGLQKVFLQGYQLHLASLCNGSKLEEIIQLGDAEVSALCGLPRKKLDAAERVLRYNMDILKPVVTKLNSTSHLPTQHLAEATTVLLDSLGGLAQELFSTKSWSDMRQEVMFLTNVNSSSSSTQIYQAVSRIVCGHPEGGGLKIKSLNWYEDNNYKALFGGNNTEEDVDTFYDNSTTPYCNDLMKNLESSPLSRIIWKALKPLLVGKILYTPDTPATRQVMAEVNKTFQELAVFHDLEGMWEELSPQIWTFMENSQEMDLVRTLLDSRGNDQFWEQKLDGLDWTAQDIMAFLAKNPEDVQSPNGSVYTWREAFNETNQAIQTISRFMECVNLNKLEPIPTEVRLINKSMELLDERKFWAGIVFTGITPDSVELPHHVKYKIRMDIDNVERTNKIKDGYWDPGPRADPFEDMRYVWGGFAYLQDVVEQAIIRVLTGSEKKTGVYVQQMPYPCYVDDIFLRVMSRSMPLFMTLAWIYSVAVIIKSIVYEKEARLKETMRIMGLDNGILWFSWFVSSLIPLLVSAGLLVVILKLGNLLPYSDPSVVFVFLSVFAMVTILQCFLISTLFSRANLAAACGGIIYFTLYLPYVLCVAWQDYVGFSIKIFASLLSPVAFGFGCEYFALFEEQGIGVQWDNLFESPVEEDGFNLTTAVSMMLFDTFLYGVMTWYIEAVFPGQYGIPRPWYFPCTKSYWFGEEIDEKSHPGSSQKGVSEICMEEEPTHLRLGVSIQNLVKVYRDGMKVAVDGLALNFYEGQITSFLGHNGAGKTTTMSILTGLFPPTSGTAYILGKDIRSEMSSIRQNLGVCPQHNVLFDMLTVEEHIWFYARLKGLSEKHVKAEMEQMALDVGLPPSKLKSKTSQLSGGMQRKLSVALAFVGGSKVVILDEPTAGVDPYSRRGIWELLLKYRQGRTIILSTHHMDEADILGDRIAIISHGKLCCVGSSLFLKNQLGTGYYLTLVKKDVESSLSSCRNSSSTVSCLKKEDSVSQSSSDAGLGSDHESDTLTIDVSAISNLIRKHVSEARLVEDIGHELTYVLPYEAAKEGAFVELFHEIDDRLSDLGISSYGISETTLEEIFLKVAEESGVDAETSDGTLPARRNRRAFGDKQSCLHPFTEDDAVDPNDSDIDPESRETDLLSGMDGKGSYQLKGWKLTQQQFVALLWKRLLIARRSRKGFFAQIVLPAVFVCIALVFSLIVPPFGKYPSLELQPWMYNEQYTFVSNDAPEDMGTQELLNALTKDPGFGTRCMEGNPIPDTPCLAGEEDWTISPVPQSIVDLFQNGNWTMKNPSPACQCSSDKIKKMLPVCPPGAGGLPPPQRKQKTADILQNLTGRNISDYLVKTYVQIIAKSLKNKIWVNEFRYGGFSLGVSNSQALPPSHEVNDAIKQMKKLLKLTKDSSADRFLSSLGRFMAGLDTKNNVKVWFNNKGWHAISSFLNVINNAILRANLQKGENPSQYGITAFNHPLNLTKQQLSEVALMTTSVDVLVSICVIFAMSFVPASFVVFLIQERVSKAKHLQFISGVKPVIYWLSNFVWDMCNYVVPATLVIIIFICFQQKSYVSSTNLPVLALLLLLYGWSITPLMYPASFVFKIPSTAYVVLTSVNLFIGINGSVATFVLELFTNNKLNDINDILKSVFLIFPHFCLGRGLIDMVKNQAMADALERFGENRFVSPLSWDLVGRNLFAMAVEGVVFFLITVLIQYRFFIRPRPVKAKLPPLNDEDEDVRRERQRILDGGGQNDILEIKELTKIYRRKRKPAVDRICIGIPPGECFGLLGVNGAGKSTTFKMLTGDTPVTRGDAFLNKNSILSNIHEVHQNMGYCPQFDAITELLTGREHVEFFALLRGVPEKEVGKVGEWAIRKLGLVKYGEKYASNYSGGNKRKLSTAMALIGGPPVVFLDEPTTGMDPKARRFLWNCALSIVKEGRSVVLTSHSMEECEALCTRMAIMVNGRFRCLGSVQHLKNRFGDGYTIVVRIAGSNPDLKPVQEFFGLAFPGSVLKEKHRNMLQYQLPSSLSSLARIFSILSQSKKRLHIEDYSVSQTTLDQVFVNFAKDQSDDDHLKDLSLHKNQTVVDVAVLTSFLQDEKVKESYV

minimum lytic concentration (MLC) (human red blood cells) [µg/mL] | SMILES | EC50 [1] [nM] | atheroma volume [2]
> 64 | O=C(N[C@H](CO)[C@H](O)c1ccc([N+](=O)[O-])cc1)C(Cl)Cl [Chloramphenicol] |  | 
 | C=CCCCCC[C@H](NC(=O)[C@H](CCC(=O)O)NC(=O)[C@H](CC(N)=O)NC(=O)[C@H](CC(C)C)NC(=O)[C@H](CCCCN)NC(=O)[C@H](CCC(=O)O)NC(=O)[C@H](CCCNC(=N)N)NC(=O)[C@H](CCCCCC=C)NC(=O)[C@H](CCC(=O)O)NC(=O)[C@H](CC(=O)O)NC(=O)[C@H](CC(C)C)NC(=O)[C@@H](NC(=O)[C@@H]1CCCN1C(C)=O)C(C)C)C(=O)N[C@@H](CC(C)C)C(=O)N[C@@H](CCC(=O)O)C(=O)N[C@@H](C)C(=O)N[C@@H](CC(C)C)C(=O)N[C@@H](CCCCN)C(=O)N[C@@H](CCC(N)=O)C(=O)N[C@@H](CCCCN)C(=O)N[C@@H](CC(C)C)C(=O)N[C@@H](CCCCN)C(N)=O [SEQ ID NO 43, PVLDES7HREKLNES7HLEALKQKLK] (Ac-PVLDE[Ala(5-hexenyl)]REKLNE[Ala(5-hexenyl)]LEALKQKLK-NH2; C-terminus assumed) | 300 | significant reduction
